Laboratory results published in the supplement of paper PMC8612539.
In brackets after ≈: the same amount, converted by molar mass.

Tested on: Escherichia coli
Assay: minimum inhibitory concentration (MIC)
Method: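 Broth microdilution MIC (Sensititre BOPO7F bovine plate, CLSI methods) of 19 antimicrobials against field isolates of P. multocida, M. haemolytica, H. somni (deep nasopharyngeal swabs) and E. coli, Enterococcus spp. (rectal swabs) from weaned dairy heifers. Incubation 16-24 h at 35 C. MIC is the lowest concentration preventing visible growth. Values with <= or > lie at the tested range limits. Trimethoprim-sulfamethoxazole is given as the trimethoprim component of a 1:19 mixture.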

CC1(C)S[C@@H]2[C@H](NC(=O)[C@H](N)c3ccccc3)C(=O)N2[C@H]1C(=O)O [Ampicillin]
Details | minimum inhibitory concentration [µg/mL]
isolate (source animal id): 139 | 1 (≈ 2.86 µM)
isolate (source animal id): 140 | 4 (≈ 11.4 µM)
isolate (source animal id): 141 | 4 (≈ 11.4 µM)
isolate (source animal id): 142 | 4 (≈ 11.4 µM)
isolate (source animal id): 143 | > 16
isolate (source animal id): 144 | > 16
isolate (source animal id): 145 | 8 (≈ 22.9 µM)
isolate (source animal id): 146 | 2 (≈ 5.72 µM)
isolate (source animal id): 147 | > 16
isolate (source animal id): 148 | 2 (≈ 5.72 µM)
isolate (source animal id): 149 | 2 (≈ 5.72 µM)
isolate (source animal id): 150 | 4 (≈ 11.4 µM)
isolate (source animal id): 151 | 1 (≈ 2.86 µM)
isolate (source animal id): 152 | 2 (≈ 5.72 µM)
isolate (source animal id): 153 | > 16
isolate (source animal id): 154 | 4 (≈ 11.4 µM)
isolate (source animal id): 155 | 2 (≈ 5.72 µM)
isolate (source animal id): 156 | > 16
isolate (source animal id): 157 | 4 (≈ 11.4 µM)
isolate (source animal id): 158 | 4 (≈ 11.4 µM)
isolate (source animal id): 159 | 2 (≈ 5.72 µM)
isolate (source animal id): 160 | 4 (≈ 11.4 µM)
isolate (source animal id): 161 | 2 (≈ 5.72 µM)
isolate (source animal id): 162 | > 16
isolate (source animal id): 163 | 4 (≈ 11.4 µM)
isolate (source animal id): 164 | 4 (≈ 11.4 µM)
isolate (source animal id): 165 | 2 (≈ 5.72 µM)
isolate (source animal id): 166 | 2 (≈ 5.72 µM)
isolate (source animal id): 167 | 4 (≈ 11.4 µM)
isolate (source animal id): 168 | 2 (≈ 5.72 µM)
isolate (source animal id): 169 | 4 (≈ 11.4 µM)
isolate (source animal id): 170 | 4 (≈ 11.4 µM)
isolate (source animal id): 171 | 4 (≈ 11.4 µM)
isolate (source animal id): 172 | 2 (≈ 5.72 µM)
isolate (source animal id): 173 | > 16
isolate (source animal id): 174 | > 16
isolate (source animal id): 175 | 4 (≈ 11.4 µM)
isolate (source animal id): 176 | > 16
isolate (source animal id): 177 | > 16
isolate (source animal id): 178 | 4 (≈ 11.4 µM)
isolate (source animal id): 179 | 4 (≈ 11.4 µM)
isolate (source animal id): 180 | 4 (≈ 11.4 µM)
isolate (source animal id): 181 | 2 (≈ 5.72 µM)
isolate (source animal id): 182 | 2 (≈ 5.72 µM)
isolate (source animal id): 183 | 4 (≈ 11.4 µM)
isolate (source animal id): 184 | 4 (≈ 11.4 µM)
isolate (source animal id): 185 | 4 (≈ 11.4 µM)
isolate (source animal id): 186 | 4 (≈ 11.4 µM)
isolate (source animal id): 187 | > 16
isolate (source animal id): 188 | > 16
